Laboratory results: US20120028888A1, “APJ RECEPTOR COMPOUNDS” (priority 2008, published 2012)
Residues, ends and D or L forms follow the SMILES beside them. *: point of attachment. Palmitoyl = CCCCCCCCCCCCCCCC(=O)*

What was measured:
mouse heart function = experiment: Langendorff heart preparation, developed pressure; format: ex vivo; conditions: isolated perfused mouse heart, 15 minutes
Procedure: A pressure-sensing balloon catheter was inserted in the LV cavity to record changes in the developed pressure. Heart function was assessed by measuring standard parameters such as heart rate, mean peak systolic pressure, mean end diastolic pressure, developed pressure, dP/dt max, and dP/dt min.

[1] = molecular target: T1, Gi-coupled receptor APJ (HEK cells stably expressing the APJ receptor) (Homo sapiens, UniProt P35414); experiment: HTRF cAMP assay: inhibition of NKH477 stimulated increase in cAMP; format: cell-based; conditions: read-out: EC50 value (nM), SEM
T1 construct: expressed in transfected cells; host or cells: HEK cells stably expressing APJ
T1 sequence (P35414 1-380): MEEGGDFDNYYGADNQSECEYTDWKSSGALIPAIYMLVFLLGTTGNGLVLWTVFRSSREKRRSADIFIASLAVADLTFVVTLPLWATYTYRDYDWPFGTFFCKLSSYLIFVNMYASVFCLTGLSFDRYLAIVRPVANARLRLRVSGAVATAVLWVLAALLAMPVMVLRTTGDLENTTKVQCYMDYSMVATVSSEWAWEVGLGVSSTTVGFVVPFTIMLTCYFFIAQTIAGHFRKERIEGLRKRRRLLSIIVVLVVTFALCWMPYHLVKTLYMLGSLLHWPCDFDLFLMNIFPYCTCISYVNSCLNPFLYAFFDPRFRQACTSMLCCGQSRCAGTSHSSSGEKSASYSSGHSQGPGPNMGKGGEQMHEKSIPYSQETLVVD
Source text: HTRF (homogeneous time resolved fluorescence) is a technology developed by Cisbio Bioassays based on TR-FRET (time-resolved fluorescence resonance energy transfer). Cisbio Bioassays has developed a wide selection of HTRF-based assays compatible with whole cells, thereby enabling functional assays to run under more physiological conditions. The IP-One assays are competitive immunoassays using cryptate-labeled anti-IPI monoclonal antibody and d2-labeled IP1. IP1 is a relatively stable downstream metabolite of IP3, and accumulates in cells following Gq receptor activation.
cAMP kits based on a competitive immunoassay using cryptate-labeled anti-cAMP antibody and d2-labeled cAMP were used to assay the effects of APJ compounds of the present invention. This assay measures the increase in intracellular cAMP upon Gs-coupled receptor activation as well as decrease in forskolin (or a more soluble version of forskolin—NKH477) stimulated increase in cAMP upon Gi-coupled receptor activation.

| EC50 [1] [nM] | Compound | effect on mouse heart function (developed pressure, inotropic effect) (mouse heart function) |
| --- | --- | --- |
|  | apelin-13 [reference compound] | increase in developed pressure |
| 1 to 500 | CCCCCCCCCCCCCCCC(=O)N[C@H](C(=O)N[C@H](C(=O)N[C@@H](Cc1ccccc1)C(=O)N[C@@H](CCCNC(=N)N)C(=O)N[C@@H](CO)C(=O)N[C@@H](CO)C(=O)N[C@@H](CCCNC(=N)N)C(=O)N[C@@H](CCC(=O)O)C(=O)N[C@@H](CCCCN)C(=O)N[C@@H](CCCNC(=N)N)C(=O)N[C@@H](CCCNC(=N)N)C(=O)N[C@@H](CO)C(=O)N[C@@H](C)C(=O)N[C@@H](CC(=O)O)C(=O)N[C@H](C(=O)N[C@@H](Cc1ccccc1)C(=O)N[C@H](C(N)=O)[C@@H](C)CC)[C@@H](C)CC)C(C)C)[C@@H](C)O [Compound 12] (Palmitoyl-TVFRSSREKRRSADIFI-NH2) | demonstrates inotropic activity |
